The values below come from patent US20240368605A1, “USE OF SPLICE SWITCHING OLIGONUCLEOTIDES FOR EXON SKIPPING-MEDIATED KNOCKDOWN OF PIM2” (INSTITUT NATIONAL DE LA SANTÉ ET DE LA RECHERCHE MÉDICALE, priority 2021, published 2024).

Common to all, as to assay type: cell-based, human
The subject of one series is PIM1. In words: PIM1 expression after SSO-PIM2 treatment. As to conditions: 2 μM.
A further series relates to PBs. In words: Mitochondria/Caspase 3-driven apoptosis and viability of PBs. As to conditions: PBs. From the text:
Mitochondrial-driven cell death is activated once the mitochondria lose the ability to maintain the inner membrane potential, resulting in the release of proapoptotic proteins into the cytosol. Commitment towards PBs is sustained by an extensive reconfiguration of the epigenetic landscape and of gene expression patterns, both showing that the most prominent function involves cell death and survival (Caron et al., 2015). […] We then investigated the different cell subsets generated through the differentiation model at the protein level for factors involved in apoptosis triggered by mitochondria (data not shown). The PBs compared to all other subsets increased the expression of pBAD and XIAP, both proteins counteract the apoptotic pathway and were described in PIM2-induced survival effect (data not shown) (Fox, 2003; Macdonald et al., 2006; Yan et al., 2003). In accordance with this finding and despite a strong increase in procaspase 3 protein (32 kDa size), PBs decrease the autocatalytic activity of Caspase 3 and therefore the production of p19/p17 apoptosis executors as highlighted by the low levels of cleaved PARP (data not shown) (Ponder and Boise, 2019). […] In addition, we found in P2/CD23+ cells a complete degradation of PARP which illustrate the fact that the apoptosis process is consubstantially associated with the B cell terminal differentiation if cells are not otherwise protected (data not shown).
We then inhibited PIM2 which led to an intense activation of Caspase 3 and a decrease of viability of PBs. The latter was rescued by the Caspase 3 inhibitor Q-DEVD-OPH (data not shown).
The differentiation of immature monocytes is associated with a relocalization of nuclear p21^Cip1/WAF1 to the cytoplasm where the protein participates to apoptosis blockage (Asada, 1999). In addition, Suzuki et al. ascribed the formation of a Procaspase 3/p21^Cip1/WAF1 complex in the context of resistance to Fas-mediated cell death owing to the phosphorylation of p21 by protein kinase A (Suzuki et al., 2000). We wanted therefore to explore whether p21^Cip1/WAF1 may bind Procaspase 3 and developed to this end a FRET approach which detected a signal of energy transfer compatible with such physical interaction. […] We then confirmed the binding between p21^Cip1/WAF1 and Caspase 3 in XG21 cells and in PBs by IP (data not shown). Finally, to confirm the anti-apoptotic role of cytoplasmic p21^Cip1/WAF1 in PBs we inhibited p21^Cip1/WAF1 expression by a siRNA targeting CDKN1A in in vitro D4 B cells (data not shown) and found an activation of the execution of apoptosis characterized by the detection of the p17-fragment cleavage of caspase 3 in parallel to the cleavage of PARP (data not shown) and similar results were found in XG21 cells (data not shown). […] The role of PIM2 is to stabilize p21^Cip1/WAF1 protein in the cytoplasm allowing therefore the formation a multiprotein complex which inhibits Caspase 3 full activation (data not shown).

The subject of the next series is PIM2. In words: PIM2 expression in in vitro differentiated activated B cells / plasmablasts after SSO treatment (mRNA, PCR, western blot, immunofluorescence). Here is the method:
FIG. 1. Specific PIM2 inhibition affects the generation of plasmablasts • A. Diagram explaining SSO-PIM2 action. It binds to the second exon of the gene PIM2 leading in a skip of this exon during transcription and finally results to a frame shift and created an early stop-codon during translation. The protein is so a non-functional truncated protein. • B. Activated B cells were treated at D4 with an increasing dose of SSO-PIM2 and SSO-CTL (control condition) and recovered 48 hours later (at D6). PIM2 mRNA residual expression compared to the control condition adjust at 100% (mean±SD, n=3) and agarose gel of PIM2 PCR, showing exon skipping. • C. At D4, activated B cells were treated with SSO-PIM2 and SSO-CTL (control condition) at 2 μM. CD23+ aBC and PB were sorted at D6. PIM2 mRNA relative expression (mean±SD, n=4) (left) and PIM2 protein expression by western blot (middle) and immunofluorescence (right) after PIM2 inhibition. • D-E. Decrease of PB generation after PIM2 inhibition. Cells were treated with SSO-PIM2 at 2 μM (D) or increase dose of the PIM inhibitor AZD1208 (PIMi as indicated, in μM) (E) and their control condition (SSO-CTL and DMSO respectively). The untreated condition is referred as “NT” (=no treatment). Left: Absolute number of PB obtained at D6 after PIM2 inhibition. Data are representative with bars at mean±SD, n=6. Right: Proportion of PB evaluated at D6 by flow cytometry after treatment with SSO-PIM2 at 2 μM. Data are representative of six independent experiments. • F. Transcription factors (IRF4, PRDM1, XBPIS, BACH2, BCL6, SPIB, IRF8 and PAX5) mRNA relative expression after specific PIM2 inhibition. Data are representative with bars at mean±SD, n=4.
To identify genes whose transcription was acutely regulated during the final commitment step we developed our previously described in vitro differentiation model system on human naive B cells (NBCs) giving at day-6 (D6) four cell populations that were explored transcriptionally (data not shown) (Caron et al., 2015; Le Gallou et al., 2012; Pignarre et al., 2021). […]
For orientation: In western blotting, separated proteins are transferred to a membrane and probed.

In the case of “5′-CCTCATGACGGATACCTGGAGTC-3′ (all phosphorodiamidate morpholino (PMO)) [SSO-PIM2]”, the “effect on PIM1 expression” value with PIM1 was “without affecting PIM1 expression”. For the same substance, in the series on PBs, the “cleaved PARP protein” value was “production of cleaved PARP protein”; the mitochondrial depolarization result is recorded as “strong mitochondrial depolarization”; the “pBAD and XIAP protein” value was “decrease of pBAD and XIAP”. In the series with PIM2 (2 μM), the PIM2 knockdown entry was “near-knockout condition for PIM2” and the “duration of PIM2 near-knockout” value is “up to 96 h”. Further, the “inhibition of PIM2 expression” value in the series on PIM2 (D6 collected PBs, increasing dose added at D4, 48 hours) is “dose-dependent inhibition of PIM2 expression”.
